From USRE48097E1, “Cephem compounds, their production and use” (priority 2015, dated 2020)
≈ marks a conversion by molar mass, not a printed value. Where two headings read alike, the source gives them in different places.

What was measured:
C. freundii 580 = assay: MIC against C. freundii 580; type: cell-based; details: Table 2, C. freundii 580, Caz R, IMP S
Summary of the method: (§1)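 MIC (μg/mL); cephem alone or + β-lactamase inhibitor (e.g. NXL-104); ceftazidime reference.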

E. cloacae596 = assay: MIC against E. cloacae596; type: cell-based, E. cloacae; details: Table 2, E. cloacae596, Caz R, IMP S
Summary of the method: as §1

S. aureus 3132 = assay: MIC against S. aureus 3132; type: cell-based; details: Table 2, S. aureus 3132, MSSA
Summary of the method: as §1

E. coli 4098 = assay: MIC against E. coli 4098; type: cell-based; details: Table 2, E. coli 4098, CTX-M-15, TEM-1
Summary of the method: as §1

S. aureus 3144 = assay: MIC against S. aureus 3144; type: cell-based; details: Table 2, S. aureus 3144, MSSA
Summary of the method: as §1

E. cloacae 2705 = assay: MIC against E. cloacae 2705; type: cell-based; details: Table 3, E. cloacae 2705, VIM-1, KPC-3type
Description: (§2) As shown, the foregoing composition was tested for minimum inhibitory concentration (MIC, μg/mL) against bacteria listed in Tables 2-3.

E. cloacae 2704 = assay: MIC against E. cloacae 2704; type: cell-based; details: Table 2, E. cloacae 2704, P99
Summary of the method: as §1

K. pneumoniae 4088 = assay: MIC against K. pneumoniae 4088; type: cell-based; details: Table 3, K. pneumoniae 4088, KPC-3
Description: as §2

K. pneumoniae 2690 = assay: MIC against K. pneumoniae 2690; type: cell-based; details: Table 3, K. pneumoniae 2690, KPC-2
Description: as §2

K. baumanii 2579 = assay: MIC against K. baumanii 2579; type: cell-based; details: Table 2, K. baumanii 2579, OXA-25
Summary of the method: as §1

M. morganii 2409 = assay: MIC against M. morganii 2409; type: cell-based; details: Table 2, M. morganii 2409, High level cephase, β-Lactamase producing
Summary of the method: as §1

S. pneumoniae 2493 = assay: MIC against S. pneumoniae 2493; type: cell-based; details: Table 2, S. pneumoniae 2493, Pen R
Summary of the method: as §1

E. cloacae 2044 = assay: MIC against E. cloacae 2044; type: cell-based; details: Table 2, E. cloacae 2044, Caz S, IMP S
Summary of the method: as §1

E. coli 4102 = assay: MIC against E. coli 4102; type: cell-based; details: Table 2, E. coli 4102, CTX-M-14
Summary of the method: as §1

K. pneumoniae 2712 = assay: MIC against K. pneumoniae 2712; type: cell-based; details: Table 3, K. pneumoniae 2712, KPC-3, VIM-1
Description: as §2

E. coli 2668 = assay: MIC against E. coli 2668; type: cell-based; details: Table 2, E. coli 2668, OXA-48
Summary of the method: as §1

K. pneumoniae 4107 = assay: MIC against K. pneumoniae 4107; type: cell-based; details: K. pneumoniae 4107, KPC-2, TEM-1, SHV-11
Description: as §2

S. pneumoniae 2389 = assay: MIC against S. pneumoniae 2389; type: cell-based; details: Table 2, S. pneumoniae 2389, Pen R
Summary of the method: as §1

K. pneumoniae 4109 = assay: MIC against K. pneumoniae 4109; type: cell-based; details: Table 2, K. pneumoniae 4109, SHV-1, SHV-12
Summary of the method: as §1

K. pneumoniae 2689 = assay: MIC against K. pneumoniae 2689; type: cell-based; details: K. pneumoniae 2689, KPC-2
Description: as §2

P. aeruginosa 2686 = assay: MIC against P. aeruginosa 2686; type: cell-based; details: Table 3, P. aeruginosa 2686, KPC-2
Description: as §2

K. baumanii 4095 = assay: MIC against K. baumanii 4095; type: cell-based; details: Table 2, K. baumanii 4095, OXA-48
Summary of the method: as §1

[1] = tested on: S. pneumoniae ATCC 700673; assay: MIC against S. pneumoniae ATCC 700673; type: cell-based; details: Table 2, S. pneumoniae ATCC 700673, Pen R
Summary of the method: as §1

S. pneumoniae 2407 = assay: MIC against S. pneumoniae 2407; type: cell-based; details: Table 2, S. pneumoniae 2407, Pen S
Summary of the method: as §1

[2] = Enterobacter cloacae, alone, read-out: MIC
[3] = Staphylococcus aureus, alone, read-out: MIC
[4] = Escherichia coli, alone, read-out: MIC
[5] = Klebsiella pneumoniae, alone, read-out: MIC
[6] = Streptococcus pneumoniae, alone, read-out: MIC
[7] = Table 2, in combination with NXL-104
[8] = Table 3, in combination with NXL-104

## CC(C)(O/N=C(\C(=O)N[C@@H]1C(=O)N2C(C(=O)[O-])=C(C[n+]3ccc4c(ccn4Cc4cc(C(=N)N)co4)c3)CS[C@H]12)c1csc(N)n1)C(=O)O [Example 6, (6R,7R)-7-{[(2Z)-2-(2-Amino-1,3-thiazol-4-yl)-2-{[(2-carboxypropan-2-yl)oxy]imino}acetyl]amino}-3-({1-[(4-carbamimidoylfuran-2-yl)methyl]-1H-pyrrolo[3,2-c]pyridin-5-ium-5-yl}methyl)-8-oxo-5-thia-1-azabicyclo[4.2.0]oct-2-ene-2-carboxylate]
C. freundii 580; Citrobacter freundii, alone, read-out: MIC
  MIC: 4 µg/mL
C. freundii 580; in combination with NXL-104
  MIC: 0.25 µg/mL
E. cloacae596; [2]
  MIC: 8 µg/mL
E. cloacae596; in combination with NXL-104
  MIC: 0.50 µg/mL
S. aureus 3132; [3]
  MIC: 4 µg/mL
S. aureus 3132; in combination with NXL-104
  MIC: 4.00 µg/mL
E. coli 4098; [4]
  MIC: 32 µg/mL
E. coli 4098; in combination with NXL-104
  MIC: 0.12 µg/mL
S. aureus 3144; [3]
  MIC: 8 µg/mL
S. aureus 3144; in combination with NXL-104
  MIC: 8.00 µg/mL
E. cloacae 2705; [2]
  MIC: > 32 µg/mL
E. cloacae 2705; in combination with NXL-104
  MIC: >32 µg/mL
E. cloacae 2704; [2]
  MIC: 32 µg/mL
E. cloacae 2704; in combination with NXL-104
  MIC: 1.00 µg/mL
K. pneumoniae 4088; [5]
  MIC: > 32 µg/mL
K. pneumoniae 4088; in combination with NXL-104
  MIC: 2 µg/mL
K. pneumoniae 2690; [5]
  MIC: 16 µg/mL (≈ 22.6 µM)
K. pneumoniae 2690; in combination with NXL-104
  MIC: 1 µg/mL
K. baumanii 2579; alone, read-out: MIC
  MIC: > 32 µg/mL
K. baumanii 2579; in combination with NXL-104
  MIC: 16.00 µg/mL
M. morganii 2409; Morganella morganii, alone, read-out: MIC
  MIC: 16 µg/mL
M. morganii 2409; in combination with NXL-104
  MIC: 1.00 µg/mL
S. pneumoniae 2493; [6]
  MIC: 2 µg/mL
S. pneumoniae 2493; in combination with NXL-104
  MIC: 2.00 µg/mL
E. cloacae 2044; [2]
  MIC: 0.12 µg/mL
E. cloacae 2044; in combination with NXL-104
  MIC: ≤0.06 µg/mL
E. coli 4102; [4]
  MIC: 2 µg/mL
E. coli 4102; in combination with NXL-104
  MIC: 0.12 µg/mL
K. pneumoniae 2712; [5]
  MIC: > 32 µg/mL
K. pneumoniae 2712; in combination with NXL-104
  MIC: 4 µg/mL
E. coli 2668; [4]
  MIC: 0.5 µg/mL
E. coli 2668; in combination with NXL-104
  MIC: 0.12 µg/mL
K. pneumoniae 4107; Klebsiella pneumoniae, 4107, Table 2, alone, read-out: MIC
  MIC: 32 µg/mL (≈ 45.2 µM)
K. pneumoniae 4107; Klebsiella pneumoniae, 4107, Table 3, alone, read-out: MIC
  MIC: 16 µg/mL (≈ 22.6 µM)
K. pneumoniae 4107; [7]
  MIC: 2.00 µg/mL
K. pneumoniae 4107; [8]
  MIC: 1 µg/mL
S. pneumoniae 2389; [6]
  MIC: 2 µg/mL
S. pneumoniae 2389; in combination with NXL-104
  MIC: 2.00 µg/mL
K. pneumoniae 4109; [5]
  MIC: 8 µg/mL
K. pneumoniae 4109; in combination with NXL-104
  MIC: 0.12 µg/mL
K. pneumoniae 2689; Klebsiella pneumoniae, 2689, Table 2, alone, read-out: MIC
  MIC: 16 µg/mL (≈ 22.6 µM)
K. pneumoniae 2689; Klebsiella pneumoniae, 2689, Table 3, alone, read-out: MIC
  MIC: 16 µg/mL (≈ 22.6 µM)
K. pneumoniae 2689; [7]
  MIC: 1.00 µg/mL
K. pneumoniae 2689; [8]
  MIC: 1 µg/mL
P. aeruginosa 2686; Pseudomonas aeruginosa, alone, read-out: MIC
  MIC: 32 µg/mL (≈ 45.2 µM)
P. aeruginosa 2686; in combination with NXL-104
  MIC: 8 µg/mL
K. baumanii 4095; alone, read-out: MIC
  MIC: 0.12 µg/mL
K. baumanii 4095; in combination with NXL-104
  MIC: 0.25 µg/mL
[1]; Streptococcus pneumoniae, ATCC700673, alone, read-out: MIC
  MIC: 2 µg/mL
[1]; in combination with NXL-104
  MIC: 2.00 µg/mL
S. pneumoniae 2407; [6]
  MIC: ≤ 0.06 µg/mL
S. pneumoniae 2407; in combination with NXL-104
  MIC: ≤0.06 µg/mL
